Assay results published in patent US8987195B2 (priority 2012, dated 2015).
Where two headings read alike, the source gives them in different places.

How the values were obtained:
[1] = target: HCV NS3/4A protease genotype 1b (Hepatitis C virus genotype 1b, UniProt P26663); test: HCV NS3/4A protease time-resolved fluorescence (TRF) assay, Ki against genotype 1b; assay type: biochemical
Outline: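 First, protease (genotype 1b 0.2 nM, A156T 0.4 nM, genotype 3a 0.025 nM) is preincubated 30 min with inhibitor. Next, 25 nM TRF substrate starts the reaction, run 2.5 h at room temperature. Finally, europium fluorescence is read and Ki calculated from IC50.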

HCV genotype 1b replicon = test: HCV replicon assay, genotype 1b replicon EC50; assay type: cell-based, Hepatitis C virus; settings: read-out: EC50 [gt-1b]
Outline: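 Stable neomycin-selected genotype 1b replicon cells, some carrying luciferase:Neo^r fusion, plated without G418 with a compound dilution series and incubated 24-48 h. Read-out was RNA (^32P-probe protection or TaqMan, normalized to cyclophilin A) or luciferase activity. EC50 from four-parameter fit as percent of DMSO control.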

[2] = IC50 [gt-1b] (nM), NS3/4A genotype 1b, enzyme 0.2 nM
[3] = Hepatitis C virus, genotype 1b replicon
[4] = IC50 [gt-1b], NS3/4A protease TRF assay, genotype 1b enzyme 0.2 nM
[5] = IC50 [gt-1b] (nM), NS3/4A genotype 1b, enzyme 0.2 nM, HCOOH salt
[6] = Hepatitis C virus, genotype 1b replicon, HCOOH salt

Compound | IC50 [1, 2] [nM] | EC50 (HCV genotype 1b replicon; [3]) [nM] | further results
Cc1nc2ccccc2c2c1O[C@]1(CC2)C[C@H]2C(=O)N[C@]3(C(=O)NS(=O)(=O)C4(C)CC4)C[C@H]3/C=C\CCCCC[C@H](NC(=O)OC3CCC(F)(F)CC3)C(=O)N2C1 [Example 196, 4,4-difluorocyclohexyl [(2R,6S,12Z,13aS,14aR,16aS)-5′-methyl-14a-{[(1-methylcyclopropyl)sulfonyl]carbamoyl}-5,16-dioxo-1,1′,2′,5,6,7,8,9,10,11,13a,14,14a,15,16,16a-hexadecahydrospiro[cyclopropa[e]pyrrolo[1,2-a][1,4]diazacyclopentadecine-2,3′-pyrano[2,3-c]quinolin]-6-yl]carbamate] | 0.003 | 5.53 | 
COc1ccc2nc(C(C)C)c3c(c2c1)C(F)(F)C[C@]1(C[C@H]2C(=O)N[C@]4(C(=O)NS(=O)(=O)C5(C)CC5)C[C@H]4/C=C\CCCCC[C@H](NC(=O)OC(C)(C)C)C(=O)N2C1)O3 [Example 3, tert-Butyl (2S,6S,13aS,14aR,16aS,Z)-1′,1′-difluoro-5′-isopropyl-9′-methoxy-14a-(1-methylcyclopropylsulfonylcarbamoyl)-5,16-dioxo-1′,2′,3,5,6,7,8,9,10,11,13a,14,14a, 15,16,16a-hexadecahydro-1H-spiro[cyclopropa[e]pyrrolo[1,2-a][1,4]diazacyclopentadecine-2,3′-pyrano[2,3-c]quinoline]-6-ylcarbamate] | 0.004 | 2.9 | 
CCOC(=O)N[C@H]1CCCCC/C=C\[C@@H]2C[C@@]2(C(=O)NS(=O)(=O)C2(C)CC2)NC(=O)[C@@H]2C[C@]3(CCc4c(c(C(F)F)nc5ccccc45)O3)CN2C1=O [Example 329, ethyl [(2R,6S,12Z,13aS,14aR,16aS)-5′-(difluoromethyl)-14a-{[(1-methylcyclopropyl)sulfonyl]carbamoyl}-5,16-dioxo-1,1′,2′,5,6,7,8,9,10,11,13a,14,14a,15,16,16a-hexadecahydrospiro[cyclopropa[e]pyrrolo[1,2-a][1,4]diazacyclopentadecine-2,3′-pyrano[2,3-c]quinolin]-6-yl]carbamate] | 0.032 | 12.2 | 
COCC1(S(=O)(=O)NC(=O)[C@@]23C[C@H]2/C=C\CCCCC[C@H](NC(=O)OC(C)(C)C)C(=O)N2C[C@@]4(CCc5c(c(C(F)F)nc6ccc(OC)cc56)O4)C[C@H]2C(=O)N3)CC1 [Example 476, tert-butyl [(2R,6S,12Z,13aS,14aR,16aS)-5′-(difluoromethyl)-9′-methoxy-14a-({[1-(methoxymethyl)cyclopropyl]sulfonyl}carbamoyl)-5,16-dioxo-1,1′,2′,5,6,7,8,9,10,11,13a,14,14a,15,16,16a-hexadecahydrospiro[cyclopropa[e]pyrrolo[1,2-a][1,4]diazacyclopentadecine-2,3′-pyrano[2,3-c]quinolin]-6-yl]carbamate] |  |  | IC50 [1, 4]: 0.012 nM; EC50 (HCV genotype 1b replicon; Hepatitis C virus, HCV replicon, genotype 1b): 4.35 nM
Cc1nc2ccccc2c2c1O[C@]1(CC2)C[C@H]2C(=O)N[C@]3(C(=O)NS(=O)(=O)C4(C)CC4)C[C@H]3/C=C\CCCCC[C@H](NC(=O)N(C(C)C)C(C)C)C(=O)N2C1 [Example 293, (2R,6S,12Z,13aS,14aR,16aS)-6-{[di(propan-2-yl)carbamoyl]amino}-5′-methyl-N-[(1-methylcyclopropyl)sulfonyl]-5,16-dioxo-1,1′,2′,6,7,8,9,10,11,13a,14,15,16,16a-tetradecahydrospiro[cyclopropa[e]pyrrolo[1,2-a][1,4]diazacyclopentadecine-2,3′-pyrano[2,3-c]quinoline]-14a(5H)-carboxamide] |  |  | IC50 [1, 5]: 0.021 nM; EC50 (HCV genotype 1b replicon; [6]): 4.87 nM
CCNC(=O)N[C@H]1CCCCC/C=C\[C@@H]2C[C@@]2(C(=O)NS(=O)(=O)C2(C)CC2)NC(=O)[C@@H]2C[C@]3(CCc4c(c(C)nc5ccccc45)O3)CN2C1=O [Example 286, (2R,6S,12Z,13aS,14aR,16aS)-6-[(ethylcarbamoyl)amino]-5′-methyl-N-[(1-methylcyclopropyl)sulfonyl]-5,16-dioxo-1,1′,2′,6,7,8,9,10,11,13a,14,15,16,16a-tetradecahydrospiro[cyclopropa[e]pyrrolo[1,2-a][1,4]diazacyclopentadecine-2,3′-pyrano[2,3-c]quinoline]-14a(5H)-carboxamide] | 0.015 | 119 | 
Cc1nc2ccccc2c2c1O[C@@]1(C[C@H]3C(=O)N[C@]4(C(=O)NS(=O)(=O)C5(C)CC5)C[C@H]4/C=C\CCCCC[C@H](NC(=O)OC4CCCC4)C(=O)N3C1)CC2(F)F [Example 149, cyclopentyl [(2S,6S,12Z,13aS,14aR,16aS)-1′,1′-difluoro-5′-methyl-14a-{[(1-methylcyclopropyl)sulfonyl]carbamoyl}-5,16-dioxo-1,1′,2′,5,6,7,8,9,10,11,13a,14,14a,15,16,16a-hexadecahydrospiro[cyclopropa[e]pyrrolo[1,2-a][1,4]diazacyclopentadecine-2,3′-pyrano[2,3-c]quinolin]-6-yl]carbamate] | 0.022 | 0.195 | 
Cc1nc2ccccc2c2c1O[C@]1(CC2)C[C@H]2C(=O)N[C@]3(C(=O)NS(=O)(=O)C4(C)CC4)C[C@H]3/C=C\CCCCC[C@H](NC(=O)N3CCCCC3)C(=O)N2C1 [Example 290, (2R,6S,12Z,13aS,14aR,16aS)-5′-methyl-N-[(1-methylcyclopropyl)sulfonyl]-5,16-dioxo-6-[(piperidin-1-ylcarbonyl)amino]-1,1′,2′,6,7,8,9,10,11,13a,14,15,16,16a-tetradecahydrospiro[cyclopropa[e]pyrrolo[1,2-a][1,4]diazacyclopentadecine-2,3′-pyrano[2,3-c]quinoline]-14a(5H)-carboxamide] |  |  | IC50 [1, 5]: 0.017 nM; EC50 (HCV genotype 1b replicon; [6]): 7.02 nM
Cc1nc2ccccc2c2c1O[C@]1(CC2)C[C@H]2C(=O)N[C@]3(C(=O)NS(=O)(=O)C4(C)CC4)C[C@H]3/C=C\CCCCC[C@H](NC(=O)OC3CCC(F)(F)C3)C(=O)N2C1 (stereo partly drawn) [Example 376, 3,3-difluorocyclopentyl [(2R,6S,12Z,13aS,14aR,16aS)-5′-methyl-14a-{[(1-methylcyclopropyl)sulfonyl]carbamoyl}-5,16-dioxo-1,1′,2′,5,6,7,8,9,10,11,13a,14,14a,15,16,16a-hexadecahydrospiro[cyclopropa[e]pyrrolo[1,2-a][1,4]diazacyclopentadecine-2,3′-pyrano[2,3-c]quinolin]-6-yl]carbamate] |  |  | IC50 [1, 4]: 0.013 nM; EC50 (HCV genotype 1b replicon; HCV replicon, genotype 1b): 2.69 nM
Cc1nc2ccccc2c2c1O[C@]1(CC2)C[C@H]2C(=O)N[C@]3(C(=O)NS(=O)(=O)C4(C)CC4)C[C@H]3/C=C\CCCCC[C@H](NCCc3ccccc3)C(=O)N2C1 [Example 172, (2R,6S,12Z,13aS,14aR,16aS)-5′-methyl-N-[(1-methylcyclopropyl)sulfonyl]-5,16-dioxo-6-[(2-phenylethyl)amino]-1,1′,2′,6,7,8,9,10,11,13a,14,15,16,16a-tetradecahydrospiro[cyclopropa[e]pyrrolo[1,2-a][1,4]diazacyclopentadecine-2,3′-pyrano[2,3-c]quinoline]-14a(5H)-carboxamide] | 0.24 | 7.99 | 
CC(C)(C)OC(=O)N[C@H]1CCCCC/C=C\[C@@H]2C[C@@]2(C(=O)NS(=O)(=O)C2(C)CC2)NC(=O)[C@@H]2C[C@]3(CCc4c(ccc5ccccc45)O3)CN2C1=O [Example 73, tert-butyl [(3R,6′S,12′Z,13a′S,14a′R,16a′S)-14a′-{[(1-methylcyclopropyl)sulfonyl]carbamoyl}-5′,16′-dioxo-1,1′,2,5′,6′,7′,8′,9′,10′,11′,13a′,14′,14a′,15′,16′,16a′-hexadecahydrospiro[benzo[f]chromene-3,2′-cyclopropa[e]pyrrolo[1,2-a][1,4]diazacyclopentadecin]-6′-yl]carbamate] | 0.12 | 1.71 | 
